Test results reported in patent US7271165B2, “Rifamycin analogs and uses thereof” (priority 2003, dated 2007).
≈ marks a conversion by molar mass, not a printed value. Where two headings read alike, the source gives them in different places.

Experiments:
S. aureus = test: MIC assay, S. aureus; type: cell-based, Staphylococcus aureus
S. pneumo. = test: MIC assay, S. pneumo.; type: cell-based, Streptococcus pneumoniae
E. faecalis = test: MIC assay, E. faecalis; type: cell-based, Enterococcus faecalis
H. flu = type: cell-based, H. influenza
E coli = test: MIC assay, E coli; type: cell-based

Compound | melting point [°C] | MIC (μg/mL) S. aureus (S. aureus) [µg/mL] | MIC (μg/mL) S. pneumo. (S. pneumo.) [µg/mL] | MIC (μg/mL) E. faecalis (E. faecalis) [µg/mL] | MIC (μg/mL) H. flu (H. flu; H. flu) [µg/mL] | MIC (μg/mL) E coli (E coli) [µg/mL] | MIC (μg/mL) H. flu (H. flu) [µg/mL]
CO[C@H]1/C=C/OC2(C)Oc3c(C)c(O)c4c(=O)c(c5oc6cc(N7CC8CC7CN8)cc(O)c6nc-5c4c3C2=O)NC(=O)/C(C)=C\C=C\[C@H](C)[C@H](O)[C@@H](C)[C@@H](O)[C@@H](C)[C@H](OC(C)=O)[C@@H]1C (stereo partly drawn) | > 330 |  |  |  |  |  | 
CO[C@H]1/C=C/OC2(C)Oc3c(C)c(O)c4c(=O)c(c5oc6cc(N7CC8CCC7CN8)cc(O)c6nc-5c4c3C2=O)NC(=O)/C(C)=C\C=C\[C@H](C)[C@H](O)[C@@H](C)[C@@H](O)[C@@H](C)[C@H](OC(C)=O)[C@@H]1C (stereo partly drawn) | > 300 |  |  |  |  |  | 
CO[C@H]1/C=C/O[C@@]2(C)Oc3c(C)c(O)c4c(=O)c(c5oc6cc(N7CCC(C(N)=O)CC7)cc(O)c6nc-5c4c3C2=O)NC(=O)/C(C)=C\C=C\[C@H](C)[C@H](O)[C@@H](C)[C@@H](O)[C@@H](C)[C@H](O)[C@@H]1C [Compound 109] |  | 0.03 (≈ 0.0339 µM) | 0.002 (≈ 0.00226 µM) | 1 (≈ 1.13 µM) | 0.25 (≈ 0.282 µM) | >8 | 
CCOC(=O)C1CCN(c2cc(O)c3nc4c5c6c7c(C)c(O)c5c(=O)c(c-4oc3c2)NC(=O)/C(C)=C\C=C\[C@H](C)[C@H](O)[C@@H](C)[C@@H](O)[C@@H](C)[C@H](O)[C@H](C)[C@@H](OC)/C=C/O[C@@](C)(O7)C6=O)CC1 [Compound 110] |  | 0.004 (≈ 0.00438 µM) | 0.008 (≈ 0.00875 µM) | 0.5 (≈ 0.547 µM) | 0.12 (≈ 0.131 µM) | >8 | 
COC1C=COC2(C)Oc3c(C)c(O)c4c(=O)c(c5oc6cc(N7CCC(F)CC7)ccc6nc-5c4c3C2=O)NC(=O)C(C)=CC=CC(C)C(O)C(C)C(O)C(C)C(O)C1C (stereo not drawn) [Compound 111] |  | 0.03 (≈ 0.0355 µM) | 0.008 (≈ 0.00948 µM) | 0.5 (≈ 0.592 µM) | 0.12 (≈ 0.142 µM) | 8 (≈ 9.48 µM) | 
COC1C=COC2(C)Oc3c(C)c(O)c4c(=O)c(c5oc6cc(N7CCC(F)(F)CC7)ccc6nc-5c4c3C2=O)NC(=O)C(C)=CC=CC(C)C(O)C(C)C(O)C(C)C(O)C1C (stereo not drawn) [Compound 112] |  | 0.03 (≈ 0.0348 µM) | 0.015 (≈ 0.0174 µM) | 1 (≈ 1.16 µM) | 0.25 (≈ 0.29 µM) | >8 | 
COC1C=COC2(C)Oc3c(C)c(O)c4c(=O)c(c5oc6cc(N7CC(C)OC(C)C7)cc(O)c6nc-5c4c3C2=O)NC(=O)C(C)=CC=CC(C)C(O)C(C)C(O)C(C)C(O)C1C (stereo not drawn) [Compound 114] |  | 0.015 (≈ 0.0172 µM) | 0.002 (≈ 0.00229 µM) | 0.25 (≈ 0.287 µM) | 0.25 (≈ 0.287 µM) | 8 (≈ 9.17 µM) | 
COC1C=COC2(C)Oc3c(C)c(O)c4c(=O)c(c5oc6cc(N7CCCC7)c(C7CCCCC7)cc6nc-5c4c3C2=O)NC(=O)C(C)=CC=CC(C)C(O)C(C)C(O)C(C)C(O)C1C (stereo not drawn) [Compound 115] |  | 2 (≈ 2.24 µM) | 0.25 (≈ 0.28 µM) | >8 | 8 (≈ 8.95 µM) | >8 | 
COC1C=COC2(C)Oc3c(C)c(O)c4c(=O)c(c5oc6cc(N7CCCC7)c(C)c(C)c6nc-5c4c3C2=O)NC(=O)C(C)=CC=CC(C)C(O)C(C)C(O)C(C)C(O)C1C (stereo not drawn) [Compound 117] |  | 0.5 (≈ 0.595 µM) | 0.06 (≈ 0.0714 µM) | 4 (≈ 4.76 µM) | 1 (≈ 1.19 µM) | >8 | 
COc1c(N2CCCC2)cc(C)c2nc3c4c5c6c(C)c(O)c4c(=O)c(c-3oc12)NC(=O)C(C)=CC=CC(C)C(O)C(C)C(O)C(C)C(O)C(C)C(OC)C=COC(C)(O6)C5=O (stereo not drawn) [Compound 118] |  | 0.06 (≈ 0.0701 µM) | 0.03 (≈ 0.035 µM) | 2 (≈ 2.34 µM) | 0.12 (≈ 0.14 µM) | 8 (≈ 9.35 µM) | 
COC1C=COC2(C)Oc3c(C)c(O)c4c(=O)c(c5oc6cc(N7CCC(F)C7)ccc6nc-5c4c3C2=O)NC(=O)C(C)=CC=CC(C)C(O)C(C)C(O)C(C)C(O)C1C (stereo not drawn) [Compound 119] |  | 0.03 (≈ 0.0361 µM) | 0.015 (≈ 0.0181 µM) | 0.5 (≈ 0.602 µM) | 0.06 (≈ 0.0723 µM) | 4 (≈ 4.82 µM) | 
COC1C=COC2(C)Oc3c(C)c(O)c4c(=O)c(c5oc6cc(N7CCCC7)c(F)cc6nc-5c4c3C2=O)NC(=O)C(C)=CC=CC(C)C(O)C(C)C(O)C(C)C(O)C1C (stereo not drawn) [Compound 120] |  | 0.03 (≈ 0.0361 µM) | 0.06 (≈ 0.0723 µM) | 1 (≈ 1.2 µM) | 0.12 (≈ 0.145 µM) | 8 (≈ 9.64 µM) | 
COC1C=COC2(C)Oc3c(C)c(O)c4c(=O)c(c5oc6cc(N7CCCN(C)CC7)cc(O)c6nc-5c4c3C2=O)NC(=O)C(C)=CC=CC(C)C(O)C(C)C(O)C(C)C(O)C1C (stereo not drawn) [Compound 121] |  | 0.004 (≈ 0.00459 µM) | 0.00012 (≈ 0.000138 µM) | 0.03 (≈ 0.0344 µM) | 0.25 (≈ 0.287 µM) | 4 (≈ 4.59 µM) | 
COC1C=COC2(C)Oc3c(C)c(O)c4c(=O)c(c5sc6cc(N7CCCN(C)CC7)ccc6nc-5c4c3C2=O)NC(=O)C(C)=CC=CC(C)C(O)C(C)C(O)C(C)C(O)C1C (stereo not drawn) [Compound 122] |  | 0.002 (≈ 0.0023 µM) | 0.00025 (≈ 0.000287 µM) | 0.25 (≈ 0.287 µM) | 0.12 (≈ 0.138 µM) | 2 (≈ 2.3 µM) | 
COC1C=COC2(C)Oc3c(C)c(O)c4c(=O)c(c5oc6cc(N(C)CC(C)C)cc(O)c6nc-5c4c3C2=O)NC(=O)C(C)=CC=CC(C)C(O)C(C)C(O)C(C)C(O)C1C (stereo not drawn) [Compound 125] |  | 0.015 (≈ 0.0178 µM) | 0.002 (≈ 0.00237 µM) | 0.5 (≈ 0.592 µM) | 0.5 (≈ 0.592 µM) | >8 | 
COC1C=COC2(C)Oc3c(C)c(O)c4c(=O)c(c5oc6cc(N(C)C7CCN(C)CC7)cc(O)c6nc-5c4c3C2=O)NC(=O)C(C)=CC=CC(C)C(O)C(C)C(O)C(C)C(O)C1C (stereo not drawn) [Compound 126] |  | 0.004 (≈ 0.00452 µM) | 0.00025 (≈ 0.000282 µM) | 0.5 (≈ 0.565 µM) | 0.25 (≈ 0.282 µM) | 4 (≈ 4.52 µM) | 
COC1C=COC2(C)Oc3c(C)c(O)c4c(=O)c(c5oc6cc(N(C)CCC#N)ccc6nc-5c4c3C2=O)NC(=O)C(C)=CC=CC(C)C(O)C(C)C(O)C(C)C(O)C1C (stereo not drawn) [Compound 127] |  | 0.06 (≈ 0.0727 µM) | 0.008 (≈ 0.0097 µM) | 0.5 (≈ 0.606 µM) | 0.12 (≈ 0.145 µM) | 8 (≈ 9.7 µM) | 
COC1C=COC2(C)Oc3c(C)c(O)c4c(=O)c(c5oc6cc(N7CCOCC7)cc(O)c6nc-5c4c3C2=O)NC(=O)C(C)=CC=CC(C)C(O)C(C)C(O)C(C)C(O)C1C (stereo not drawn) [Compound 128] |  | 0.004 (≈ 0.00474 µM) | 0.00025 (≈ 0.000296 µM) | 0.06 (≈ 0.0711 µM) |  | >8 | 0.12 (≈ 0.142 µM)
COC1C=COC2(C)Oc3c(C)c(O)c4c(=O)c(c5sc6cc(N7CCOCC7)ccc6nc-5c4c3C2=O)NC(=O)C(C)=CC=CC(C)C(O)C(C)C(O)C(C)C(O)C1C (stereo not drawn) [Compound 129] |  | 0.015 (≈ 0.0178 µM) | 0.001 (≈ 0.00118 µM) | 0.5 (≈ 0.592 µM) |  | 4 (≈ 4.74 µM) | 0.06 (≈ 0.0711 µM)
CO[C@H]1/C=C/O[C@@]2(C)Oc3c(C)c(O)c4c(=O)c(c5n(C)c6ccccc6nc-5c4c3C2=O)NC(=O)/C(C)=C\C=C\[C@H](C)[C@H](O)[C@@H](C)[C@@H](O)[C@@H](C)[C@H](O)[C@@H]1C [Compound 131] |  | 0.5 (≈ 0.661 µM) | 0.5 (≈ 0.661 µM) | 2 (≈ 2.65 µM) |  | 8 (≈ 10.6 µM) | 2 (≈ 2.65 µM)
C=CCc1cc(C)cc2nc3c4c5c6c(C)c(O)c4c(=O)c(c-3oc12)NC(=O)C(C)=CC=CC(C)C(O)C(C)C(O)C(C)C(O)C(C)C(OC)C=COC(C)(O6)C5=O (stereo not drawn) [Compound 132] |  | 0.06 (≈ 0.0753 µM) | 0.03 (≈ 0.0376 µM) | 2 (≈ 2.51 µM) |  | >8 | 0.5 (≈ 0.627 µM)
CO[C@H]1/C=C/O[C@@]2(C)Oc3c(C)c(O)c4c(=O)c(c5oc6cccc(O)c6nc-5c4c3C2=O)NC(=O)/C(C)=C\C=C\[C@H](C)[C@H](O)[C@@H](C)[C@@H](O)[C@@H](C)[C@H](O)[C@@H]1C [Compound 133] |  | 0.004 (≈ 0.00527 µM) | 0.002 (≈ 0.00264 µM) | 0.12 (≈ 0.158 µM) |  | 8 (≈ 10.5 µM) | 0.25 (≈ 0.329 µM)
